In patent publication EP2128622A1, “Means and methods for diagnosing metastasising potentials of tumor cells” (DKFZ Deutsches Krebsforschungszentrum, priority 2008, dated 2009):
Numbered stars: 1 amine (or outer) side, 2 acyl side, 3 side chain; on linkers, the order of the positions; unused ones are H or OH. Bridge positions count the residues as written; N and C are the ends. Square brackets hold non-standard residues; d marks the D form. Peptide text beside a SMILES is read from it. I, II: the chains in the order shown. Actinocin(9to1) = Cc1c2oc3c(C)ccc(C(=O)[*:1])c3nc-2c(C(=O)[*:2])c(N)c1=O; NMeV = CN[C@H](C(=O)O)C(C)C; Sar = CNCC(=O)O

Columns and labels:
HaCaT cells [1] = experiment: Migration assay (scratch assay, model for wound healing); format: cell-based, human
Protocol: Using a human keratinocyte cell line (HaCaT) in a Scratch-Assay as a model for wound healing, different model-predicted points of interference were tested. First it was confirmed that HGF-induced migration predominantly depends on a transcriptional response.
Immortalized human keratinocytes (HaCaT cells) were cultured in monoculture with DMEM (10% FCS, 100 U/ml penicillin, 100 µg/ml streptomycin). Subsequently, the cell monolayer was damaged with a 'scratch' using a pipette tip and cells were treated with 5 µg/ml mitomycin c (Sigma-Aldrich) for three hours before stimulation. Cells were stimulated at indicated time points and periods with cytokines and/or inhibitors: 10 ng/ml HGF, (R&D Systems), 1 ng/ml EGF (R&D Systems), 150 nM Tyrphostin AG1473 (Biomol) (EGF-R inhibitor) or 1 µM GW 2974 (Sigma) (EGF-R inhibitor), […] Meloxicam (Biomol) (PTGS-2 inhibitor), 0.5 µM H-89 (Calbiochem) (PKA inhibitor) or 10 µM Myristoylated PKI (14-22) amide, cell-permeable PKA inhibitor (Biomol), 200 µM 8-(4-Chlorophenylthio)adenosine 3',5'-cyclic monophosphate sodium salt (Sigma) (PKA activator) and incubated for further 30 hours. Relative migratory activity was determined by measuring migration distance during culture using standard protocols.

HaCaT cells [2] = experiment: MTT-viability assay; format: cell-based, human; details: under Actinomycin D treatment; data not shown

## Nc1ncnc2c1nc(Sc1ccc(Cl)cc1)n2[C@@H]1O[C@@H]2COP(=O)([O-])O[C@H]2[C@H]1O.[Na+] [8-(4-Chlorophenylthio)adenosine 3',5'-cyclic monophosphate sodium salt]
HaCaT cells [1]; Fig. 6C, 200 µM added at different time points with respect to HGF pulse stimulation (10 ng/ml for 1.5h)
  HGF-induced HaCaT migration: strongly decreases

## Cc1c2oc3c(C)ccc(C(=O)N[C@@H]4C(=O)N[C@H](C(C)C)C(=O)N5CCC[C@H]5C(=O)N(C)CC(=O)N(C)[C@@H](C(C)C)C(=O)O[C@@H]4C)c3nc-2c(C(=O)N[C@@H]2C(=O)N[C@H](C(C)C)C(=O)N3CCC[C@H]3C(=O)N(C)CC(=O)N(C)[C@@H](C(C)C)C(=O)O[C@@H]2C)c(N)c1=O [Actimocyin D, Actinomycin D] (I: T[dV]P[Sar][NMeV] / II: T[dV]P[Sar][NMeV]; ester I:1-I:C, II:1-II:C; linker I:N-II:N via Actinocin(9to1))
HaCaT cells [1]; Fig. 2B, prolonged incubation (30 h) with 10 ng/ml recombinant human HGF plus Actinomycin D 5 µg/ml
  migratory response to HGF: abolished any migratory response to HGF
HaCaT cells [2]
  cell viability: still viable

## CN(C)c1cc2c(Nc3ccc4c(cnn4Cc4ccccc4)c3)ncnc2cn1 [GW2974]
HaCaT cells [1]; Fig. 3G, 1 µM GW 2974 simultaneous to 10 ng/ml HGF, 30 h
  HGF-induced migration: abolish HGF-induced migration

## O=S(=O)(NCCNC/C=C/c1ccc(Br)cc1)c1cccc2cnccc12 [H-89]
HaCaT cells [1]; Fig. 6C, 0.5 µM at the time of HGF stimulation
  HGF-induced migration: slightly increases migration
HaCaT cells [1]; Fig. 6C, 0.5 µM directly after HGF pulse stimulation (1.5 h)
  development of a migratory response: does not alter development of a migratory response
HaCaT cells [1]; Fig. 6C, PKA inhibition after 22 h, when cells already developed a full migratory response
  further migration: delays further migration
